Measured values from ChEMBL document CHEMBL1149501, “Selective COX-2 inhibitors. Part 1: synthesis and biological evaluation of phenylazobenzenesulfonamides” (Bioorg Med Chem Lett, 2006).

Tests used:
[1] = target: Prostaglandin G/H synthase 1 (Homo sapiens, UniProt P23219); test: Inhibition of COX1 assessed as TBX2 production in human whole blood; type: functional, tissue-based
[2] = target: T1, Prostaglandin G/H synthase 1 (Ovis aries, UniProt P05979)
T1 sequence (P05979 whole entry): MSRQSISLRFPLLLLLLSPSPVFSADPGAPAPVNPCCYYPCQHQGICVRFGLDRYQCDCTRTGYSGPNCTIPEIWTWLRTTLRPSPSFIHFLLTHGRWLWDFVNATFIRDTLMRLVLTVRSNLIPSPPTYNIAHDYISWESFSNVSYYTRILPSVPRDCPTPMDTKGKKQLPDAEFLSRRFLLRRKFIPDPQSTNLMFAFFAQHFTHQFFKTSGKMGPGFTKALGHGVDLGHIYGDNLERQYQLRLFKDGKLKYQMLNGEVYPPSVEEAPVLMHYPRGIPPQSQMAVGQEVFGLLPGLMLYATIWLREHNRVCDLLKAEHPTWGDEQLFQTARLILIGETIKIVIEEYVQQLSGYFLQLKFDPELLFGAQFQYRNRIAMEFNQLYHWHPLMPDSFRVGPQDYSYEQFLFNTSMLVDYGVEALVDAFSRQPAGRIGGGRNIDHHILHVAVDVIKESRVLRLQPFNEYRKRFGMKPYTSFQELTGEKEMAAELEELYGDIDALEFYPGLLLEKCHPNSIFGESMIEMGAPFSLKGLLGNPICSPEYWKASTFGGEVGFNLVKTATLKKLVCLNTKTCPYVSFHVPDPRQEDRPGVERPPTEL

Prostaglandin G/H synthase 1 (Homo sapiens, UniProt P23219), sequence (P23219 whole entry): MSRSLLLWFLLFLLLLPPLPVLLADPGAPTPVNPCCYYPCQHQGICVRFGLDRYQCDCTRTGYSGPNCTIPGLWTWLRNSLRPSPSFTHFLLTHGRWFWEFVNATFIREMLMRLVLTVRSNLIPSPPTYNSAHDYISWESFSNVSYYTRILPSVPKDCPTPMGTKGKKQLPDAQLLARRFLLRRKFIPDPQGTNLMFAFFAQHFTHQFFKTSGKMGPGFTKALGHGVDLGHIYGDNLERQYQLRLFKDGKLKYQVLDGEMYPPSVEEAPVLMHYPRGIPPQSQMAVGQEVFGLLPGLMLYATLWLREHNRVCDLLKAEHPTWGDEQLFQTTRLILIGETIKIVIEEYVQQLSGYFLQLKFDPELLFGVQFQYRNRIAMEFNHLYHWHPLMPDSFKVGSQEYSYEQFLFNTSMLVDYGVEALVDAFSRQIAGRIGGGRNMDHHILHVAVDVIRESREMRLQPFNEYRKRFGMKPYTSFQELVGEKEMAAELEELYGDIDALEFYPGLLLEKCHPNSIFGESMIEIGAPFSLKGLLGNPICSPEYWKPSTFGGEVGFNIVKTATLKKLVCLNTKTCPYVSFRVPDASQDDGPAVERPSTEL

Compound | IC50 [1] [µM] | IC50 [2] [µM]
COc1ccc(/N=N/c2ccc(S(N)(=O)=O)cc2)cc1O | 66.4 | –
COc1ccc(/N=N/c2ccc(S(N)(=O)=O)cc2)cc1 | > 100 | –
COc1ccc(/N=N/c2ccc(S(N)(=O)=O)cc2)cc1OC | 61.7 | > 100
COc1cc(/N=N/c2ccc(S(N)(=O)=O)cc2)ccc1O | > 100 | –
CN(C)c1ccc(/N=N/c2ccc(S(N)(=O)=O)cc2)cc1 | > 100 | –
NS(=O)(=O)c1ccc(/N=N/c2ccc(O)cc2)cc1 | > 100 | –
Oc1ccc(/C=C/c2cc(O)cc(O)c2)cc1 [RESVERATROL] | – | 0.38

Further compounds by falling IC50 [1], results first:

IC50 [1] [µM] | IC50 [2] [µM] | Compound
60 | – | NS(=O)(=O)c1ccc(/N=N/c2ccc(O)c(O)c2)cc1
35.1 | – | NS(=O)(=O)c1ccc(/N=N/c2ccc(OC(=O)Nc3ccccc3)c(OC(=O)Nc3ccccc3)c2)cc1
33.3 | – | NS(=O)(=O)c1ccc(/N=N/c2ccc(O)c(Cl)c2)cc1
31.6 | 29.3 | NS(=O)(=O)c1ccc(/N=N/c2ccc(O)c(C(=O)O)c2)cc1 [SALAZOSULFAMIDE]
26.3 | – | CC(C)c1ccc(NC(=O)Oc2ccc(/N=N/c3ccc(S(N)(=O)=O)cc3)cc2OC(=O)Nc2ccc(C(C)C)cc2)cc1
23.3 | 34.1 | CSc1cc(N)ccc1/N=N/c1ccc(S(N)(=O)=O)cc1
